Measurements taken from patent US10710980B2, “Aminopyridine derivatives and their use as selective ALK-2 inhibitors” (priority 2016, dated 2020).

How the values were obtained:
ALK1 (aa166-493) = ALK1 (aa166-493) (Homo sapiens (Human), UniProt P37023); experiment: Caliper biochemical peptide phosphorylation assay, ALK1; conditions: 15 μm ATP, 60 min at 30° C.; read-out: ALK1 EPK (IC50)
[1] = system: BMP response element (BRE) luciferase reporter in HuH7 cells, BMP6 stimulated; experiment: BMP signaling reporter gene assay; type: cell-based; conditions: Homo sapiens, Huh-7; HuH7 BRE-luciferase, BMP6 100 ng/ml, 5 hours; read-out: MSD BMP RGA IC50
ALK5 (aa162-503) = ALK5 (aa162-503) (Homo sapiens (Human), UniProt P36897); experiment: Caliper biochemical peptide phosphorylation assay, ALK5; conditions: 15 μm ATP, 60 min at 30° C.; read-out: ALK5 EPK (IC50)
[2] = molecular target: T1, wild-type ALK2 (aa172-499) (Homo sapiens (Human), UniProt Q04771); experiment: Caliper biochemical peptide phosphorylation assay, ALK2; conditions: 15 μm ATP, 60 min at 30° C.; read-out: ALK2 EPK (IC50)
ALK6 (aa168-495) = ALK6 (aa168-495) (Homo sapiens (Human), UniProt O00238); experiment: Caliper biochemical peptide phosphorylation assay, ALK6; conditions: 15 μm ATP, 60 min at 30° C.; read-out: ALK6 EPK (IC50)
ALK3 (aa198-525) = ALK3 (aa198-525) (Homo sapiens (Human), UniProt P36894); experiment: ADPGlo biochemical autophosphorylation assay, ALK3; conditions: 15 μm ATP, 60 min at 32° C.
[3] = molecular target: T1, wild-type ALK2 (aa172-499); experiment: ADPGlo biochemical autophosphorylation assay, ALK2; conditions: 15 μm ATP, 60 min at 32° C.

T1 sequence (Q04771 172-499): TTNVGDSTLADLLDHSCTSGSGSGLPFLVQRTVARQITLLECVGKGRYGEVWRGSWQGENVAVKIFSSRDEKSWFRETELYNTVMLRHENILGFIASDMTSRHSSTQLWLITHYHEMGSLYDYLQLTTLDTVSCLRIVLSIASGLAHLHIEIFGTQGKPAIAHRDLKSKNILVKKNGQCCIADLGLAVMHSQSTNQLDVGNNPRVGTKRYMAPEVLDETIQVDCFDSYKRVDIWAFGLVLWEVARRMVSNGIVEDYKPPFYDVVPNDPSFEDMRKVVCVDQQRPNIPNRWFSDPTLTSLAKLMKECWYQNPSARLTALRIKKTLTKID
ALK5 (aa162-503), sequence (P36897 162-503): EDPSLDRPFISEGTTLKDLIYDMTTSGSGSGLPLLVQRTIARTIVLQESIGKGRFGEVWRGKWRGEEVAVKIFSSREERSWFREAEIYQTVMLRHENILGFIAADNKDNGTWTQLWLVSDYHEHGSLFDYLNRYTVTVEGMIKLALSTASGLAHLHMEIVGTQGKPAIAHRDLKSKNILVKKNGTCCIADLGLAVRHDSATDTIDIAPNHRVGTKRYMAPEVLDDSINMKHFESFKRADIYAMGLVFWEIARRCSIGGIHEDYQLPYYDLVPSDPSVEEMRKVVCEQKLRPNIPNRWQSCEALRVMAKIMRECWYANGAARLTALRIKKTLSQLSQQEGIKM
ALK1 (aa166-493), sequence (P37023 166-493): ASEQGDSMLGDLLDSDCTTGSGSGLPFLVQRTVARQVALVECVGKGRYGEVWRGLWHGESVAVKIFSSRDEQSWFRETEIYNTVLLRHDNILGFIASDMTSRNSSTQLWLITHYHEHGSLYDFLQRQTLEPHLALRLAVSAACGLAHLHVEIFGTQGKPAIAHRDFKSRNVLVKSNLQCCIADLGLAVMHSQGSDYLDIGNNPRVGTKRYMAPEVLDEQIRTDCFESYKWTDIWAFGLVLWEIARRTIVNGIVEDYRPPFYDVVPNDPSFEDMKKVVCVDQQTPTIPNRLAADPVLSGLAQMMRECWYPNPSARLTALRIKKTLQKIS
ALK3 (aa198-525), sequence (P36894 198-525): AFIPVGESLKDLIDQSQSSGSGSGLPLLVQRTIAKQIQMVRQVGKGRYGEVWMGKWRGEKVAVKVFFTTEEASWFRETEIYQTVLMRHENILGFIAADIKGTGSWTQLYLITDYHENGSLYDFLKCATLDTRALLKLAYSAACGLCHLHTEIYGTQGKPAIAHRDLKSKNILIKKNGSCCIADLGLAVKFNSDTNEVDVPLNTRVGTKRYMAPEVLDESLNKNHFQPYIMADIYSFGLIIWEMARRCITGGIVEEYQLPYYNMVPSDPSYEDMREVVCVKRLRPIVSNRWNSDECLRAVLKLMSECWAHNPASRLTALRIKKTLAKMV
ALK6 (aa168-495), sequence (O00238 168-495): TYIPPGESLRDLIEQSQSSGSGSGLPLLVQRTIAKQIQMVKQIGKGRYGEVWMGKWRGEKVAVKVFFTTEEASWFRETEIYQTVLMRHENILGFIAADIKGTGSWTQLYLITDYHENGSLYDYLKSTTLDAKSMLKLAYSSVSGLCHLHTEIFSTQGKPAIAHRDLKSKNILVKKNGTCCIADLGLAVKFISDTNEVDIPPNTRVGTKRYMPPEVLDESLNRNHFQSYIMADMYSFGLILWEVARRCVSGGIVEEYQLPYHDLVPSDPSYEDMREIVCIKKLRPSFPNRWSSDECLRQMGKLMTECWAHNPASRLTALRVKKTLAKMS

| SMILES | IC50 (ALK1 (aa166-493)) [µM] | IC50 [1] [µM] | IC50 (ALK5 (aa162-503)) [µM] | IC50 [2] [µM] | IC50 (ALK6 (aa168-495)) [µM] | IC50 (ALK3 (aa198-525)) [µM] | IC50 [3] [µM] |
| --- | --- | --- | --- | --- | --- | --- | --- |
| CS(=O)(=O)N1CCC(N2C[C@H]3C[C@@]3(c3ccc(-c4cnc(N)c(C(=O)N[C@H]5CC[C@H](O)CC5)c4)cc3)C2)CC1 [Example 1, 2-amino-N-((1r,4R)-4-hydroxycyclohexyl)-5-(4-((1R,5S)-3-(1-(methylsulfonyl)piperidin-4-yl)-3-azabicyclo[3.1.0]hexan-1-yl)phenyl)nicotinamide] | 0.075 | 0.076 | 0.56 | 0.009 | 0.74 | 0.31 | 0.005 |
| CC(C)N1C[C@H]2C[C@@]2(c2ccc(-c3cnc(N)c(C(=O)N[C@H]4CC[C@H](O)CC4)c3)cc2)C1 [Example 2, 2-amino-N-((1r,4R)-4-hydroxycyclohexyl)-5-(4-((1R,5S)-3-isopropyl-3-azabicyclo[3.1.0]hexan-1-yl)phenyl)nicotinamide] | 0.093 | 0.021 | 2.17 | 0.011 | 2.5 | 1.77 | 0.012 |
| C[C@H](c1ccc(-c2cnc(N)c(C(=O)N[C@H]3CC[C@H](O)CC3)c2)cc1)N1CC2(COC2)C1 [Example 3, 5-(4-((R)-1-(2-oxa-6-azaspiro[3.3]heptan-6-yl)ethyl)phenyl)-2-amino-N-((1r,4R)-4-hydroxycyclohexyl)nicotinamide] | 0.136 | 0.062 | 2.13 | 0.011 | 1.73 | 1.05 | 0.012 |
| C[C@@H](c1ccc(-c2cnc(N)c(C(=O)N[C@H]3CC[C@H](O)CC3)c2)cc1)N1CC2(COC2)C1 [Example 4, 5-(4-((S)-1-(2-oxa-6-azaspiro[3.3]heptan-6-yl)ethyl)phenyl)-2-amino-N-((1r,4R)-4-hydroxycyclohexyl)nicotinamide] | 0.175 | 0.108 | 2.45 | 0.013 | 1.85 | 0.83 | 0.005 |
| Nc1ncc(-c2ccc([C@]34C[C@H]3CN(CCCN3CCOCC3)C4)cc2)cc1C(=O)N[C@H]1CC[C@H](O)CC1 [Example 5, 2-amino-N-((1r,4S)-4-hydroxycyclohexyl)-5-(4-((1S,5R)-3-(3-morpholinopropyl)-3-azabicyclo[3.1.0]hexan-1-yl)phenyl)nicotinamide] | 0.081 | 0.12 | 2.2 | 0.01 | 2.5 | 1.1 | 0.007 |
| CC(C)N1CCC(c2ccc(-c3cnc(N)c(C(=O)N[C@H]4CC[C@H](O)CC4)c3)cc2)C1 (stereo partly shown) [Example 12, 2-amino-N-((1r,4r)-4-hydroxycyclohexyl)-5-(4-(1-isopropylpyrrolidin-3-yl)phenyl)nicotinamide] | 0.16 |  |  |  |  |  |  |
| C[C@]1(O)CC[C@H](NC(=O)c2cc(-c3ccc([C@@]45C[C@@H]4CN(C4CCOCC4)C5)cc3)cnc2N)CC1 [Example 14, 2-amino-N-((1r,4R)-4-hydroxy-4-methylcyclohexyl)-5-(4-((1R,5S)-3-(tetrahydro-2H-pyran-4-yl)-3-azabicyclo[3.1.0]hexan-1-yl)phenyl)nicotinamide] |  | 0.205 |  |  |  |  |  |
| Nc1ncc(-c2ccc(C3CCNC3)cc2)cc1C(=O)N[C@H]1CC[C@H](O)CC1 (stereo partly shown) [Example 18, 2-amino-N-((1r,4r)-4-hydroxycyclohexyl)-5-(4-(pyrrolidin-3-yl)phenyl)nicotinamide] | 0.2 |  |  |  |  |  |  |
| Nc1ncc(-c2ccc([C@@]34C[C@@H]3CN(C3CCOCC3)C4)cc2)cc1C(=O)N[C@H]1CC[C@H](O)CC1 [Example 19, 2-amino-N-((1r,4R)-4-hydroxycyclohexyl)-5-(4-((1R,5S)-3-(tetrahydro-2H-pyran-4-yl)-3-azabicyclo[3.1.0]hexan-1-yl)phenyl)nicotinamide] | 0.105 | 0.021 |  |  | 2.25 |  | 0.012 |
| Nc1ncc(-c2ccc([C@@]34C[C@@H]3CN(C3CCOCC3)C4)cc2)cc1C(=O)N[C@H]1CC[C@@H](O)CC1 [Example 22, 2-amino-N-((1s,4S)-4-hydroxycyclohexyl)-5-(4-((1R,5S)-3-(tetrahydro-2H-pyran-4-yl)-3-azabicyclo[3.1.0]hexan-1-yl)phenyl)nicotinamide] | 0.25 | 0.041 |  | 0.016 | 3.2 |  | 0.009 |
| Nc1ncc(-c2ccc([C@@]34C[C@@H]3CN(C3CCC(F)(F)CC3)C4)cc2)cc1C(=O)N[C@H]1CC[C@H](O)CC1 [Example 25, 2-amino-5-(4-((1R,5S)-3-(4,4-difluorocyclohexyl)-3-azabicyclo[3.1.0]hexan-1-yl)phenyl)-N-((1r,4R)-4-hydroxycyclohexyl)nicotinamide] |  | 0.035 |  | 0.018 | 3 |  | 0.009 |
| Nc1ncc(-c2ccc([C@]34C[C@H]3CN(C3CCC(F)(F)CC3)C4)cc2)cc1C(=O)N[C@H]1CC[C@H](O)CC1 [Example 27, 2-amino-5-(4-((1S,5R)-3-(4,4-difluorocyclohexyl)-3-azabicyclo[3.1.0]hexan-1-yl)phenyl)-N-((1r,4S)-4-hydroxycyclohexyl)nicotinamide] | 0.135 | 0.059 |  | 0.018 | 1.6 |  | 0.01 |
| Nc1ncc(-c2ccc([C@]34C[C@H]3CN(C3CCOCC3)C4)cc2)cc1C(=O)N[C@H]1CC[C@H](O)CC1 [Example 33] | 0.22 | 0.026 |  | 0.02 | 2 |  | 0.01 |
| C[C@@H]1CCCN1Cc1ccc(-c2cnc(N)c(C(=O)N[C@H]3CC[C@](C)(O)CC3)c2)cc1F [Example 46, 2-amino-5-(3-fluoro-4-(((R)-2-methylpyrrolidin-1-yl)methyl)phenyl)-N-((1r,4R)-4-hydroxy-4-methylcyclohexyl)nicotinamide] |  |  | 10 | 0.025 | 10 | 14.6 | 0.024 |
| Nc1ncc(-c2ccc([C@@]34C[C@@H]3CN(CCF)C4)cc2)cc1C(=O)NC12CCC(O)(CC1)CC2 [Example 57, 2-amino-5-(4-((1R,5S)-3-(2-fluoroethyl)-3-azabicyclo[3.1.0]hexan-1-yl)phenyl)-N-(4-hydroxybicyclo[2.2.2]octan-1-yl)nicotinamide] |  | 0.144 |  |  |  |  |  |
| C[C@]1(O)CC[C@H](NC(=O)c2cc(-c3ccc([C@]45C[C@H]4CN(C4CCOCC4)C5)cc3)cnc2N)CC1 [Example 62] |  | 0.134 |  |  |  |  |  |
| C[C@@H]1CCCN1Cc1ccc(-c2cnc(N)c(C(=O)N[C@H]3CC[C@](C)(O)CC3)c2)cc1 [Example 72, 2-amino-N-((1r,4R)-4-hydroxy-4-methylcyclohexyl)-5-(4-(((R)-2-methylpyrrolidin-1-yl)methyl)phenyl)nicotinamide] | 2.95 |  |  |  |  |  |  |
| Nc1ncc(-c2ccc([C@]34C[C@H]3CN(CCF)C4)cc2)cc1C(=O)NC12CCC(O)(CC1)CC2 [Example 73, 2-amino-5-(4-((1S,5R)-3-(2-fluoroethyl)-3-azabicyclo[3.1.0]hexan-1-yl)phenyl)-N-(4-hydroxybicyclo[2.2.2]octan-1-yl)nicotinamide] |  | 0.13 |  |  |  |  |  |
